Reference: patent US9914722B2, “Compounds for treating spinal muscular atrophy” (PTC Therapeutics Inc., priority 2012, dated 2018)

Experiments:
Smn protein = Smn protein assay (Smn HTRF) in cultured cells; type: cell-based, human; details: Homo sapiens, Fibroblast, GM03813 SMA Type 1 patient fibroblasts, 48 hours, HTRF; for maximal fold induction: 7-point concentration data, relative to vehicle, read-out: maximum fold (Fold) increase of Smn protein; for EC (1.5-fold): concentration producing 1.5 times Smn protein vs DMSO vehicle, read-out: EC1.5x for Smn protein expression
Procedure: Smn Protein Assay in Cultured Cells
The Smn HTRF (homogeneous time resolved fluorescence) assay is used to quantify the level of Smn protein in SMA patient fibroblast cells treated with test compounds.
Protocol. Cells are thawed and cultured in DMEM-10% FBS for 72 hours. Cells are trypsinized, counted and re-suspended to a concentration of 25,000 cells/mL in DMEM-10% FBS. The cell suspension is plated at 5,000 cells per well in a 96 well microtiter plate and incubated for 3 to 5 hours. […] Test compounds are serially diluted 3.16-fold in 100% DMSO to generate a 7-point concentration curve. 1 μL of test compound solution is transferred to cell-containing wells and cells are incubated for 48 hours in a cell culture incubator (37° C., 5% CO2, 100% relateive humidity). Triplicate samples are set up for each test compound concentration. After 48 hours, the supernatant is removed from the wells and 25 μL of the RIPA lysis buffer, containing protease inhibitors, is added to the wells and incubated with shaking at room temperature for 1 hour. 25 μL of the diluent is added and then 35 μL of the resulting lysate is transferred to a 384-well plate, where each well contains 5 μL of the antibody solution (1:100 dilution of anti-SMN d2 and anti-SMN kryptate in SMN reconstitution buffer). The plate is centrifuged for 1 minute to bring the solution to the bottom of the wells, then incubated overnight at room temperature. Fluorescence for each well of the plate at 665 nm and 620 nm is measured on an EnVision multilabel plate reader (Perkin-Elmer).
The normalized fluorescence signal is calculated for each sample, Blank and vehicle control well by dividing the signal at 665 nm by the signal at 620 nm. Normalizing the signal accounts for possible fluorescence quenching due to the matrix effect of the lysate. The AF value (a measurement of Smn protein abundance as a percent value) for each sample well is calculated by subtracting the normalized average fluorescence for the Blank control wells from the normalized fluorescence for each sample well, then dividing this difference by the normalized average fluorescence for the Blank control wells and multiplying the resulting value by 100. The ΔF value for each sample well represents the Smn protein abundance from test compound-treated samples. The ΔF value for each sample well is divided by the ΔF value for the vehicle control wells to calculate the fold increase in Smn protein abundance relative to the vehicle control.
For compounds of Formula (I) or a form thereof disclosed herein, Table 9 provides the EC1.5x for Smn protein expression that was obtained from the 7-point concentration data generated for each test compound according to the procedure of Biological Example 7. The term “EC1.5x for Smn protein expression” is defined as that concentration of test compound that is effective in producing 1.5 times the amount of Smn protein in an SMA patient fibroblast cell compared to the amount produced from the DMSO vehicle control. An EC1.5x for Smn protein expression between >3 μM and ≦10 μM is indicated by one star (*), an EC1.5x between >1 μM and ≦3 μM is indicated by two stars (**), an EC1.5x between >0.3 μM and ≦1 μM is indicated by three stars (***) and an EC1.5x≦0.3 μM is indicated by four stars (****).
For compounds of Formula (I) or a form thereof disclosed herein, Table 10 provides the maximum fold (Fold) increase of Smn protein that was obtained from the 7-point concentration data generated for each test compound according to the procedure of Biological Example 7. A maximum fold increase ≦1.2 is indicated by one star (*), a fold increase between >1.2 and ≦1.35 is indicated by two stars (**), a fold increase between >1.35 and ≦1.5 is indicated by three stars (***), a fold increase between >1.5 and ≦1.65 is indicated by four stars (****) and a fold increase >1.65 is indicated by five stars (*****).

[1] = tested on: full length SMN2 minigene mRNA containing SMN2 exon 7 (SMN2-A minigene); test: SMN2 minigene mRNA splicing RT-qPCR assay in cultured cells; type: cell-based, human; details: Homo sapiens, HEK293-H; HEK293H cells stably transfected with SMN2-A minigene, 24 hours, 7-point concentration curve; concentration giving 1.5-fold SMN2 full length mRNA vs vehicle; read-out: EC1.5x for production of full length SMN2 mRNA
Procedure: SMN2 Minigene mRNA Splicing RT-qPCR Assay in Cultured Cells
The reverse transcription-quantitative PCR-based (RT-qPCR) assay is used to quantify the level of the full length SMN2 minigene mRNA containing SMN2 exon 7 in a HEK293H cell line stably transfected with said minigene and treated with a test compound.
Protocol. HEK293H cells stably transfected with the SMN2-A minigene construct described above (10,000 cells/well) are seeded in 200 μL of cell culture medium (DMEM plus 10% FBS, with 200 μg/mL hygromycin) in 96-well flat-bottom plates and the plate is immediately swirled to ensure proper dispersal of cells, forming an even monolayer of cells. Cells are allowed to attach for at least 4-6 hours. Test compounds are serially diluted 3.16-fold in 100% DMSO to generate a 7-point concentration curve. A solution of test compound (1 μL, 200× in DMSO) is added to each cell-containing well and the plate is incubated for 24 hours in a cell culture incubator (37° C., 5% CO2, 100% relative humidity). Two replicates are prepared for each test compound concentration. The cells are then lysed in Cells-To-Ct lysis buffer and the lysate is stored at −80° C.
Primer SMN Forward A (SEQ ID NO. 1) hybridizes to a nucleotide sequence in exon 7 (nucleotide 22 to nucleotide 40), primer SMN Reverse A (SEQ ID NO. 2) hybridizes to a nucleotide sequence in the coding sequence of Firefly luciferase, SMN Probe A (SEQ ID NO. 3) hybridizes to a nucleotide sequence in exon 7 (nucleotide 50 to nucleotide 54) and exon 8 (nucleotide 1 to nucleotide 21). The combination of these three oligonucleotides detects only SMN1 or SMN2 minigenes (RT-qPCR) and will not detect endogenous SMN1 or SMN2 genes.
The SMN forward and reverse primers are used at final concentrations of 0.4 μM. The SMN probe is used at a final concentration of 0.15 μM. The GAPDH primers are used at final concentrations of 0.2 μM and the probe at 0.15 μM.
The SMN2-minigene GAPDH mix (15 μL total volume) is prepared by combining 7.5 μL of 2×RT-PCR buffer, 0.4 μL of 25×RT-PCR enzyme mix, 0.75 μL of 20×GAPDH primer-probe mix, 4.0075 μL of water, 2 μL of 10-fold diluted cell lysate, 0.06 μL of 100 μM SMN forward primer, 0.06 μL of 100 μM SMN reverse primer, and 0.225 μL of 100 μM SMN probe.
PCR is carried out at the following temperatures for the indicated time: Step 1: 48° C. (15 min); Step 2: 95° C. (10 min); Step 3: 95° C. (15 sec); Step 4: 60° C. (1 min); then repeat Steps 3 and 4 for a total of 40 cycles.
Each reaction mixture contains both SMN2-A minigene and GAPDH primers/probe sets (multiplex design), allowing simultaneous measurement of the levels of two transcripts.
Two SMN spliced products are generated from the SMN2 minigene. The first spliced product containing exon 7, corresponding to SMN2 full length mRNA, is referred to herein using the term “SMN2 minigene FL.” The second spliced product lacking exon 7 is referred to herein using the term “SMN2 minigene Δ7.”
The increase of SMN2 minigene FL mRNA relative to that in cells treated with vehicle control is determined from real-time PCR data using a modified ΔΔCt method (as described in Livak and Schmittgen, Methods, 2001, 25:402-8). The amplification efficiency (E) is calculated from the slope of the amplification curve for SMN2 minigene FL and GAPDH mRNA individually. The abundance of SMN2 minigene FL and GAPDH mRNA are then calculated as (1+E)^−Ct, where Ct is the threshold value for each amplicon. The abundance of SMN2 minigene FL is normalized to GAPDH abundance. The normalized SMN2 minigene FL abundance from test compound-treated samples is then divided by normalized SMN2 minigene FL abundance from vehicle-treated cells to determine the level of SMN2 FL mRNA relative to vehicle control. […]

| Structure (SMILES) | melting point | maximal fold induction (Smn protein) | EC (1.5-fold) (Smn protein) | EC (1.5-fold) [1] |
| --- | --- | --- | --- | --- |
| C[C@@H]1CN(c2ccc3oc(-c4ccccn4)cc(=O)c3c2)CCN1 [Cpd 15, 6-[(3R)-3-methylpiperazin-1-yl]-2-(pyridin-2-yl)-4H-chromen-4-one] | 140 to 142 °C | 1.5 to 1.65 | 3 to 10 µM | 1 to 3 µM |
| COc1ccc(-c2cc(=O)c3cc(N4CCN(C)CC4)ccc3o2)cc1OC [Cpd 21, 2-(3,4-dimethoxyphenyl)-6-(4-methylpiperazin-1-yl)-4H-chromen-4-one] | 184 to 186 °C | > 1.65 | 1 to 3 µM | 0.3 to 1 µM |
| CCN1CCN(c2ccc3oc(-c4ccc(OC)c(OC)c4)cc(=O)c3c2)CC1 [Cpd 22, 2-(3,4-dimethoxyphenyl)-6-(4-ethylpiperazin-1-yl)-4H-chromen-4-one] | 188 to 190 °C | > 1.65 | 1 to 3 µM | 0.3 to 1 µM |
| COc1ccc(-c2cc(=O)c3cc(N4CCN[C@H](C)C4)ccc3o2)cc1OC [Cpd 23, 2-(3,4-dimethoxyphenyl)-6-[(3R)-3-methylpiperazin-1-yl]-4H-chromen-4-one] | 181 to 183 °C | 1.5 to 1.65 | 0.3 to 1 µM | 0.1 to 0.3 µM |
| COc1ccc(-c2cc(=O)c3cc(N4C[C@@H](C)N[C@@H](C)C4)ccc3o2)cc1OC [Cpd 24, 2-(3,4-dimethoxyphenyl)-6-[(3R,5S)-3,5-dimethylpiperazin-1-yl]-4H-chromen-4-one] | 206 to 208 °C | > 1.65 | 1 to 3 µM | 0.3 to 1 µM |
| COc1ccc(-c2cc(=O)c3cc(N4CCCN(C)CC4)ccc3o2)cc1OC [Cpd 26, 2-(3,4-dimethoxyphenyl)-6-(4-methyl-1,4-diazepan-1-yl)-4H-chromen-4-one] | 106 to 108 °C | 1.35 to 1.5 |  | 3 to 30 µM |
| COc1ccc(-c2cc(=O)c3cc(N4CCNC(C)(C)C4)ccc3o2)cc1OC [Cpd 27, 2-(3,4-dimethoxyphenyl)-6-(3,3-dimethylpiperazin-1-yl)-4H-chromen-4-one] | 108 to 110 °C | > 1.65 | 1 to 3 µM | 0.3 to 1 µM |

Now from value to molecule, other results behind:

| melting point | Structure (SMILES) | maximal fold induction (Smn protein) | EC (1.5-fold) (Smn protein) | EC (1.5-fold) [1] |
| --- | --- | --- | --- | --- |
| 210 to 215 °C | C[C@@H]1CN(c2ccc3oc(-c4cn5ccccc5n4)cc(=O)c3c2)CCN1 [Cpd 16, 2-(imidazo[1,2-a]pyridin-2-yl)-6-[(3R)-3-methylpiperazin-1-yl]-4H-chromen-4-one] | > 1.65 | 1 to 3 µM | 1 to 3 µM |
| 198 to 200 °C | O=c1cc(-c2cn3ccccc3n2)oc2ccc(N3CCCNCC3)cc12 [Cpd 18, 6-(1,4-diazepan-1-yl)-2-(imidazo[1,2-a]pyridin-2-yl)-4H-chromen-4-one] | > 1.65 | 3 to 10 µM | 3 to 30 µM |
| 188 to 190 °C | CN1CCCN(c2ccc3oc(-c4cn5ccccc5n4)cc(=O)c3c2)CC1 [Cpd 19, 2-(imidazo[1,2-a]pyridin-2-yl)-6-(4-methyl-1,4-diazepan-1-yl)-4H-chromen-4-one] | > 1.65 | 1 to 3 µM | 3 to 30 µM |
| 177 to 179 °C | COc1ccc(-c2cc(=O)c3cc(N4CCNCC4)ccc3o2)cc1OC [Cpd 20, 2-(3,4-dimethoxyphenyl)-6-(piperazin-1-yl)-4H-chromen-4-one] | > 1.65 | 0.3 to 1 µM | ≤ 0.1 µM |
| 152 to 154 °C | COc1ccc(-c2cc(=O)c3cc(N4CCCNCC4)ccc3o2)cc1OC [Cpd 25, 6-(1,4-diazepan-1-yl)-2-(3,4-dimethoxyphenyl)-4H-chromen-4-one] | 1.35 to 1.5 |  | 3 to 30 µM |
| 228 to 232 °C | Cc1ccn2cc(-c3cc(=O)c4cc(N5CCNCC5)ccc4o3)nc2c1 [Cpd 28, 2-(7-methylimidazo[1,2-a]pyridin-2-yl)-6-(piperazin-1-yl)-4H-chromen-4-one] | > 1.65 | 3 to 10 µM | 1 to 3 µM |
| 150 to 155 °C | Cc1ccn2cc(-c3cc(=O)c4cc(N5CCN[C@H](C)C5)ccc4o3)nc2c1 [Cpd 29, 2-(7-methylimidazo[1,2-a]pyridin-2-yl)-6-[(3R)-3-methylpiperazin-1-yl]-4H-chromen-4-one] | 1.35 to 1.5 | 3 to 10 µM | 3 to 30 µM |
